Test results taken from the supplement of paper PMC10627819.

Legend:
S. aureus DSM 20231 [1] = assay: fitness (endpoint OD595 vs no drug) (fraction); higher = more growth
Method in brief: (§1)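 Volumes were 30 µl per well, or 55 µl for S. pneumoniae, in 384-well plates inoculated at OD595 0.01. Media were TSB, LB Lennox or CY at 37 °C, and OD595 was read every 30 min for 14 h with first-reading background subtraction. Fitness is the ratio of optical density at stationary-phase entry to the robust mean of no-drug controls. That ratio is capped at 1.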

S. aureus Newman [2] = assay: as above
Method in brief: as §1

S. pneumoniae D39V [3] = assay: as above
Method in brief: as §1

B. subtilis 168 = assay: Bliss interaction score (quartile over a dose matrix) (fitness difference); higher = more antagonism (negative = synergy)
Method in brief: (§2)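 The Bliss score is observed fitness minus expected fitness, where the expected value is the product of single-drug fitness values inferred from combination data. Fitness is OD595 at entry into stationary phase normalised to the plate's robust no-drug mean and capped at 1. Scores are reported as quartiles spanning technical, biological and donor/recipient replicates.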

S. aureus DSM 20231 [4] = assay: as above
Method in brief: as §2

S. aureus Newman [5] = assay: as above
Method in brief: as §2

S. pneumoniae D39V [6] = assay: as above
Method in brief: as §2
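Wherever Bliss interaction score (quartile over a dose matrix) is given: first quartile when negative (synergy) and third quartile when positive (antagonism).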

O=C(O[C@@H]1Cc2c(O)cc(O)cc2O[C@@H]1c1cc(O)c(O)c(O)c1)c1cc(O)c(O)c(O)c1 [EGCG] + CN[C@H](CC(C)C)C(=O)N[C@H]1C(=O)N[C@@H](CC(N)=O)C(=O)N[C@H]2C(=O)N[C@H]3C(=O)N[C@H](C(=O)N[C@H](C(=O)O)c4cc(O)cc(O)c4-c4cc3ccc4O)[C@H](O)c3ccc(c(Cl)c3)Oc3cc2cc(c3O[C@@H]2O[C@H](CO)[C@@H](O)[C@H](O)[C@H]2O[C@H]2C[C@](C)(N)[C@H](O)[C@H](C)O2)Oc2ccc(cc2Cl)[C@H]1O [Vancomycin]
fitness
Details | first compound 12.5 µg/mL | first compound 25 µg/mL | first compound 50 µg/mL
S. aureus DSM 20231 [1], partner 0.1875 µg/mL | 0.846 | 0.747 | 0.753
S. aureus DSM 20231 [1], partner 0.375 µg/mL | 0.842 | 0.781 | 0.836
S. aureus DSM 20231 [1], partner 0.75 µg/mL | 0.865 | 0.885 | 0.738
S. aureus Newman [2], partner 0.1875 µg/mL | 0.754 | 0.782 | –
S. aureus Newman [2], partner 0.375 µg/mL | 0.757 | 0.766 | 0.846
S. aureus Newman [2], partner 0.75 µg/mL | 0.789 | 0.776 | 0.778
S. pneumoniae D39V [3], partner 0.03125 µg/mL | 0.907 | 0.913 | 0.931
S. pneumoniae D39V [3], partner 0.0625 µg/mL | 0.887 | 0.901 | 0.959
S. pneumoniae D39V [3], partner 0.125 µg/mL | 0.889 | 0.89 | 0.948
S. pneumoniae D39V [3], partner 0.25 µg/mL | 0.317 | – | 0.397
S. pneumoniae D39V [3], partner 0.5 µg/mL | 0.0543 | 0.0794 | 0.143

Details | Bliss interaction score
B. subtilis 168 | 0.0425
S. aureus DSM 20231 [4] | 0.0881
S. aureus Newman [5] | -0.0625
S. pneumoniae D39V [6] | 0.0478

O=C(N[C@H](CO)[C@H](O)c1ccc([N+](=O)[O-])cc1)C(Cl)Cl [Chloramphenicol] + CN1C2=CC=CC=C2N=C3C1=CC=CC3=O [Pyocyanin]
fitness
Details | first compound 0.75 µg/mL | first compound 1.5 µg/mL | first compound 3 µg/mL
S. aureus DSM 20231 [1], partner 1.25 µg/mL | 0.645 | – | 0.0788
S. aureus DSM 20231 [1], partner 2.5 µg/mL | – | 0.321 | –
S. aureus DSM 20231 [1], partner 5 µg/mL | – | 0.332 | 0.0653
S. aureus Newman [2], partner 1.25 µg/mL | 0.741 | 0.5 | 0.174
S. aureus Newman [2], partner 2.5 µg/mL | 0.725 | 0.41 | 0.137
S. aureus Newman [2], partner 5 µg/mL | 0.333 | 0.173 | 0.0578

Details | Bliss interaction score
B. subtilis 168 | 0.049
S. aureus DSM 20231 [4] | -0.0896
S. aureus Newman [5] | -0.0632
S. pneumoniae D39V [6] | 0.0521

O=C(N[C@H](CO)[C@H](O)c1ccc([N+](=O)[O-])cc1)C(Cl)Cl [Chloramphenicol] + COc1c(N2C[C@@H]3CCCN[C@@H]3C2)c(F)cc2c(=O)c(C(=O)O)cn(C3CC3)c12 [Moxifloxacin]
fitness
Details | first compound 0.75 µg/mL | first compound 1.5 µg/mL | first compound 3 µg/mL
S. aureus DSM 20231 [1], partner 0.0075 µg/mL | 0.578 | 0.633 | –
S. aureus DSM 20231 [1], partner 0.015 µg/mL | 0.714 | 0.636 | 0.113
S. aureus DSM 20231 [1], partner 0.03 µg/mL | 0.613 | 0.562 | 0.0861
S. aureus Newman [2], partner 0.0075 µg/mL | 0.738 | 0.566 | 0.214
S. aureus Newman [2], partner 0.015 µg/mL | 0.647 | 0.487 | 0.166
S. aureus Newman [2], partner 0.03 µg/mL | – | 0.364 | –

fitness, S. aureus DSM 20231 [1], one replicate
Details | first compound 0.75 µg/mL | first compound 1.5 µg/mL | first compound 3 µg/mL
partner 0.06 µg/mL | 0.67 | 0.635 | 0.0943
partner 0.12 µg/mL | 0.591 | 0.58 | 0.118

Details | Bliss interaction score
B. subtilis 168 | 0.0443
S. aureus DSM 20231 [4] | 0.148
S. aureus Newman [5] | 0.16
S. pneumoniae D39V [6] | 0.0681

COc1c(N2C[C@@H]3CCCN[C@@H]3C2)c(F)cc2c(=O)c(C(=O)O)cn(C3CC3)c12 [Moxifloxacin] + CCCCCCCCCC(=O)N[C@@H]1[C@H]([C@@H]([C@H](O[C@H]1OC2=C3C=C4C=C2OC5=C(C=C(C=C5)[C@H]([C@H]6C(=O)N[C@@H](C7=C(C(=CC(=C7)O)OC8[C@H]([C@H]([C@@H]([C@H](O8)CO)O)O)O)C9=C(C=CC(=C9)[C@H](C(=O)N6)NC(=O)[C@@H]4NC(=O)[C@@H]1C2=CC(=CC(=C2)OC2=C(C=CC(=C2)[C@H](C(=O)N[C@H](CC2=CC(=C(O3)C=C2)Cl)C(=O)N1)N)O)O)O)C(=O)O)O[C@H]1[C@@H]([C@H]([C@@H]([C@H](O1)CO)O)O)NC(=O)C)Cl)CO)O)O [Teicoplanin]
fitness, main component drawn
Details | first compound 0.0075 µg/mL | first compound 0.015 µg/mL | first compound 0.03 µg/mL
S. aureus DSM 20231 [1], partner 0.1562 µg/mL | 0.912 | 0.852 | 0.748
S. aureus DSM 20231 [1], partner 0.3125 µg/mL | ≥ 1 | 0.94 | 0.752
S. aureus DSM 20231 [1], partner 0.625 µg/mL | ≥ 1 | 0.991 | 0.745
S. aureus Newman [2], partner 0.1562 µg/mL | 0.773 | 0.597 | 0.0859
S. aureus Newman [2], partner 0.3125 µg/mL | 0.797 | 0.577 | 0.0839
S. aureus Newman [2], partner 0.625 µg/mL | 0.717 | – | 0.06

fitness, one replicate, main component drawn
Details | partner 0.1562 µg/mL | partner 0.3125 µg/mL | partner 0.62 µg/mL | partner 0.625 µg/mL | partner 1.24 µg/mL | partner 2.48 µg/mL
S. aureus DSM 20231 [1], first compound 0.06 µg/mL | 0.665 | 0.7 | – | 0.697 | – | –
S. aureus DSM 20231 [1], first compound 0.12 µg/mL | 0.497 | 0.468 | – | 0.513 | – | –
S. aureus Newman [2], first compound 0.0075 µg/mL | – | – | 0.679 | – | 0.608 | 0.337
S. aureus Newman [2], first compound 0.015 µg/mL | – | – | 0.608 | – | 0.488 | 0.0713
S. aureus Newman [2], first compound 0.03 µg/mL | – | – | 0.0881 | – | 0.0113 | 0.0176

main component drawn
Details | Bliss interaction score
B. subtilis 168 | -0.0201
S. aureus DSM 20231 [4] | 0.0596
S. aureus Newman [5] | -0.0744
S. pneumoniae D39V [6] | -0.0767

O=C(N[C@H](CO)[C@H](O)c1ccc([N+](=O)[O-])cc1)C(Cl)Cl [Chloramphenicol] + Cc1onc(-c2ccccc2)c1C(=O)N[C@@H]1C(=O)N2[C@@H]1SC(C)(C)[C@@H]2C(=O)O [Oxacillin]
fitness
Details | first compound 0.75 µg/mL | first compound 1.5 µg/mL | first compound 3 µg/mL
S. aureus DSM 20231 [1], partner 0.0156 µg/mL | 0.677 | 0.461 | –
S. aureus DSM 20231 [1], partner 0.0312 µg/mL | 0.6 | 0.392 | 0.113
S. aureus DSM 20231 [1], partner 0.0625 µg/mL | 0.489 | 0.478 | 0.0972
S. aureus Newman [2], partner 0.0156 µg/mL | 0.734 | 0.573 | 0.253
S. aureus Newman [2], partner 0.0312 µg/mL | 0.617 | 0.484 | 0.143
S. aureus Newman [2], partner 0.0625 µg/mL | 0.555 | 0.359 | –

Details | Bliss interaction score
B. subtilis 168 | -0.0473
S. aureus DSM 20231 [4] | 0.0696
S. aureus Newman [5] | 0.0445
S. pneumoniae D39V [6] | 0.0937
